Measurements from article PMC4052304, “New Benzoxazine Secondary Metabolites from an Arctic Actinomycete” (Marine Drugs, 2014).
Read-outs that look alike come from different tables or passages of the source.

Legend:
[1] = molecular target: Candida albicans isocitrate lyase (ICL) (Candida albicans, UniProt Q9P8Q7); assay: Inhibition of the isocitrate lyase (ICL) activity assay; assay type: biochemical; details: for inhibitory activity towards ICL (in words): even at high concentrations (100 μg/mL)
Candida albicans isocitrate lyase (ICL), sequence (Q9P8Q7 whole entry): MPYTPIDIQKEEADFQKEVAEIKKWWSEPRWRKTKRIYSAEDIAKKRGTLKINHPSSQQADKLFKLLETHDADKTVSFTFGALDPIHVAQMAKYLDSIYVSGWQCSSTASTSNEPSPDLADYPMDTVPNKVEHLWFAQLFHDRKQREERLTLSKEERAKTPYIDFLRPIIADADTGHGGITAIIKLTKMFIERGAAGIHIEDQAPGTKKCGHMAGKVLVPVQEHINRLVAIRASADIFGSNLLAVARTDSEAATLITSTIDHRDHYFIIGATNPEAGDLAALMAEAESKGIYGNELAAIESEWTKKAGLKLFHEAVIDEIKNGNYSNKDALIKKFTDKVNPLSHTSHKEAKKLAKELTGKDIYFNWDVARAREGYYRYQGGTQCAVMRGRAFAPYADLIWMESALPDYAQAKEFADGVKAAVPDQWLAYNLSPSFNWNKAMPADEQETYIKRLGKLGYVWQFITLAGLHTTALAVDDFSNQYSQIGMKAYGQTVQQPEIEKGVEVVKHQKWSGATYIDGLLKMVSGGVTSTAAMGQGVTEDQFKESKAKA
Experimental: The formation of glyoxylate phenylhydrazone in the presence of phenylhydrazine and isocitrate was measured spectrophotometrically at 324 nm. The enzyme reaction mixture (1 mL) included 1.27 mM threo-DS (+) isocitrate, 3.75 mM MgCl2, 4.1 mM phenylhydrazine, 20 mM sodium phosphate buffer (pH 7.0), and 2.5 μg/mL purified C. albicans ICL. The reaction was performed at 37 °C for 30 min, and the protein concentration was measured using the Bradford method and a Bio-Rad protein assay Kit (Bio-Rad, Alfred Nobel Dr. Hercules, CA, USA) with bovine serum albumin as a standard.

[2] = system: HCT116, A549, SNU638, SK-HEP1, K562 and MDA-MB231 human carcinoma cell lines; assay: Anti-proliferative activity, SRB assay, panel of six human carcinoma cell lines; assay type: cell-based; details: 72 h
Experimental: (§1) Cell proliferation was analyzed using the sulforhodamine B (SRB) assay. Six human cancer cell lines (HCT116, MDA-MB231, SNU638, A549, K562, and SK-HEP1 at 3 × 10^4 cells/mL) were seeded in 96-well plates at different compound concentrations before incubating at 37 °C in a humidified atmosphere with 5% CO2. After 72 h of treatment, the cells were fixed with a 10% TCA solution for 1 h before staining the cellular proteins with 0.4% SRB in 1% acetic acid. The stained cells were dissolved in 10 mM Tris buffer (pH 10.0). The effects of the compounds on cell proliferation were calculated as percentages relative to the solvent-treated control. In addition, the IC50 values were determined by nonlinear regression analysis (percent survival versus concentration).

[3] = system: HCT116 (colon cancer) cells; assay: Anti-proliferative activity, SRB assay, HCT116; assay type: cell-based; details: Homo sapiens, HCT-116, 72 h, read-out: IC50, cytotoxicity against HCT116
Experimental: as §1

A549 (lung cancer) cells = assay: Anti-proliferative activity, SRB assay, A549; assay type: cell-based; details: Homo sapiens, A549, 72 h, read-out: IC50, cytotoxicity against A549
Experimental: as §1

[4] = system: SNU638 (gastric cancer) cells; assay: Anti-proliferative activity, SRB assay, SNU638; assay type: cell-based; details: Homo sapiens, SNU-638, 72 h, read-out: IC50, cytotoxicity against SNU638
Experimental: as §1

[5] = system: SK-HEP1 (liver cancer) cells; assay: Anti-proliferative activity, SRB assay, SK-HEP1; assay type: cell-based; details: Homo sapiens, SK-HEP1, 72 h, read-out: IC50, cytotoxicity against SK-HEP1
Experimental: as §1

[6] = system: K562 (leukemia cancer) cells; assay: Anti-proliferative activity, SRB assay, K562; assay type: cell-based; details: Homo sapiens, K562, 72 h, read-out: IC50, cytotoxicity against K562
Experimental: as §1

[7] = system: MDA-MB231 (breast cancer) cells; assay: Anti-proliferative activity, SRB assay, MDA-MB231; assay type: cell-based; details: Homo sapiens, MDA-MB-231, 72 h, read-out: IC50, cytotoxicity against MDA-MB231
Experimental: as §1

[8] = purified C. albicans ICL 2.5 μg/mL, 37 °C, 30 min, pH 7.0, read-out: IC50, inhibition of Candida albicans isocitrate lyase (ICL)

Work on `O=C(O)CC[N+](=O)[O-]` [3-nitropropionic acid, reference compound] yielded an IC50 [1, 8] of 35.2 µM.

In the case of `C=C1Oc2cc(OC)cc(C(=O)OC[C@H]3O[C@H](OC[C@H]4O[C@H](O)[C@H](O)[C@@H](O)[C@@H]4O)[C@H](O)[C@@H](O)[C@@H]3O)c2NC1=O` [Compound 1, arcticoside], the IC50 [1, 8] is reported as 30.4 µM and the “cytotoxicity against human carcinoma cell lines (in words)” value [2] is reported as “did not display notable inhibitory activity”.

With `C=C1Oc2cc(OC)cc(C(=O)O[C@H]3COC(=O)C[C@H](N)c4cc(O)c(c(Cl)c4)O[C@@H]4c5ccc3c(Cl)c5C3=CC=C[C@@]34O[C@@H]3OC(C)(C)[C@@H](N(C)C)[C@@H](O)[C@H]3O)c2NC1=O` [Compound 2, C-1027 chromophore-V] the IC50 [1] was 37.9 µM, the IC50 [3] was 2.7 µM and the IC50 (A549 (lung cancer) cells) was 14.7 µM. It also gave an IC50 [4] of 9.8 µM, an IC50 [5] of 7.9 µM and an IC50 [6] of 25.1 µM. The IC50 [7] was 0.9 µM.

`C=C1Oc2cc(OC)cc(C(=O)O[C@H]3COC(=O)C[C@H](N)c4cc(O)c(c(Cl)c4)O[C@@H]4c5ccc3cc5C3=CC=C[C@@]34O[C@@H]3OC(C)(C)[C@@H](N(C)C)[C@@H](O)[C@H]3O)c2NC1=O` [Compound 3, C-1027 chromophore-III] was tested, and the IC50 [1] was 25.6 µM, the IC50 [3] was 0.6 µM and the IC50 (A549 (lung cancer) cells) was 2.2 µM. It also gave an IC50 [4] of 1.1 µM, an IC50 [5] of 0.9 µM and an IC50 [6] of 4.8 µM. For the same compound, the IC50 [7] was 44 µM.

For `CC(=O)N[C@H]1CC(=O)OC[C@H](O)c2ccc3c(c2Cl)C2=CC=C[C@]2(O[C@@H]2OC(C)(C)[C@@H](N(C)C)[C@@H](O)[C@H]2O)[C@@H]3Oc2c(O)cc1cc2Cl` [Compound 4, fijiolide A], the “inhibitory activity towards ICL (in words)” value [1] was “no activity”.

For `CN(C)[C@H]1[C@@H](O)[C@@H](O)[C@H](O[C@]23C=CC=C2c2c4ccc(c2Cl)[C@@H](O)COC(=O)C[C@H](N)c2cc(O)c(c(Cl)c2)O[C@H]43)OC1(C)C` [Compound 5, fijiolide B], the “inhibitory activity towards ICL (in words)” value [1] was “no activity”.
